Reference: ChEMBL document CHEMBL1136940, “Design and implementation of an ribonucleic acid (RNA) directed fragment library” (J Med Chem, 2009)
One block for each compound: values may come before it. Calls of active or inactive are those of the source. The rule behind the calls is not given here. *1 amine or outer side, *2 acyl side, *3 side chain or, on linkers, in order; H or OH if unused. Where a SMILES comes first, the peptide text is derived from it. Bridges are numbered along the chain shown (N, C = ends). [ ]: non-standard residue; d: D form. The star is where a group is joined. X1 = NC1=N[C@@H]([C@H](N[*:1])C(=O)[*:2])C[C@H](O)N1; ΔAla(Z-3-ureido) = NC(=O)N/C=C(\N)C(=O)O; β3hOrn = NCCC[C@H](N)CC(=O)*; Dap = NC[C@H](N)C(=O)O

Legend:
Assay type in all cases: nucleic-acid assay
Nucleic Acid [1] = experiment: Displacement of gentamycin from Escherichia coli 16S ribosomal 27-nucleotide A-site RNA by water Logsy NMR spectroscopy based competitive displacement assay
Nucleic Acid [2] = experiment: Displacement of gentamycin from Escherichia coli 16S ribosomal 27-nucleotide A-site RNA by T2 filter NMR spectroscopy based competitive displacement assay
Nucleic Acid [3] = experiment: Displacement of gentamycin from RNA bulge site of Escherichia coli 16S ribosomal 27-nucleotide A-site RNA by water Logsy NMR spectroscopy based noncompetitive binding assay
Nucleic Acid [4] = experiment: Displacement of gentamycin from RNA bulge site of Escherichia coli 16S ribosomal 27-nucleotide A-site RNA by T2 filter NMR spectroscopy based competitive binding assay
Nucleic Acid [5] = experiment: Binding affinity to A-site RNA
Nucleic Acid [6] = experiment: Binding affinity to Escherichia coli 23S rRNA L11 binding domain
Nucleic Acid [7] = experiment: Binding affinity to RNAse P
Nucleic Acid [8] = experiment: Binding affinity to small bacterial subunit RNA
Nucleic Acid [9] = experiment: Binding affinity to Escherichia coli 23S rRNA L11 binding domain in presence of protein
Nucleic Acid [10] = experiment: Binding affinity to ribosome/exit tunnel RNA region
Nucleic Acid [11] = experiment: Binding affinity to RNA ribosome intersubuint bridge

- Activity (Nucleic Acid [1]): Active
- Activity (Nucleic Acid [2]): Active
SMILES: Cc1cc(N(C)C)nc2cc(N)ccc12

- Activity (Nucleic Acid [1]): Active
- Activity (Nucleic Acid [2]): Active
SMILES: N[C@@H]1C[C@H](N)[C@@H](O)[C@H](O)[C@H]1O

SMILES: c1ccc2nc3ccccc3cc2c1
- Activity (Nucleic Acid [3]): Active
- Activity (Nucleic Acid [4]): Active

- Kd (Nucleic Acid [5]): 50 nM
SMILES: NCC[C@H](O)C(=O)N[C@@H]1C[C@H](N)[C@@H](O[C@H]2O[C@H](CN)[C@@H](O)[C@H](O)[C@H]2O)[C@H](O)[C@H]1O[C@H]1O[C@H](CO)[C@@H](O)[C@H](N)[C@H]1O [AMIKACIN]

- Kd (Nucleic Acid [5]): 60 nM
SMILES: CN[C@@H]1[C@@H](O[C@H]2O[C@H](CO)[C@@H](N)[C@H](O)[C@H]2O)OC2C[C@@H](N)[C@@H](O[C@H]3[C@H](O)[C@@H](O)[C@H](N)C[C@@H]3N)OC2[C@@H]1O (stereo partly drawn) [APRAMYCIN]

- Kd (Nucleic Acid [5]): 60 nM
SMILES: NC[C@H]1O[C@H](O[C@H]2[C@H](O)[C@@H](O[C@H]3O[C@H](CO)[C@@H](O)[C@H](N)[C@H]3O)[C@H](N)C[C@@H]2N)[C@H](N)[C@@H](O)[C@@H]1O [BEKANAMYCIN]

- Kd (Nucleic Acid [5]): 60 nM
SMILES: NC[C@@H]1O[C@H](O[C@H]2[C@@H](O)[C@H](O[C@@H]3[C@@H](O)[C@H](N)C[C@H](N)[C@H]3O[C@H]3O[C@H](CN)[C@@H](O)[C@H](O)[C@H]3N)O[C@@H]2CO)[C@H](N)[C@@H](O)[C@@H]1O [FRAMYCETIN]

SMILES: CN[C@@H]1[C@@H](O)[C@@H](O[C@@H]2[C@@H](O)[C@H](O[C@H]3O[C@H]([C@@H](C)O)[C@@H](O)[C@H](O)[C@H]3N)[C@@H](N)C[C@H]2N)OC[C@]1(C)O [GENETICIN]
- Kd (Nucleic Acid [5]): < 100 nM

- Kd (Nucleic Acid [5]): 100 nM
SMILES: NC[C@@H]1O[C@@H](O[C@H]2[C@H](O)[C@@H](O[C@H]3O[C@H](CO)[C@@H](O)[C@H](N)[C@H]3O)[C@H](N)C[C@@H]2N)[C@@H](O)[C@H](O)[C@H]1O [KANAMYCIN A]

- Kd (Nucleic Acid [5]): 28 nM
SMILES: NC[C@@H]1O[C@H](O[C@H]2[C@@H](O)[C@H](O[C@@H]3[C@@H](O)[C@H](N)C[C@H](N)[C@H]3O[C@H]3O[C@H](CO)[C@@H](O)C[C@H]3N)O[C@@H]2CO)[C@H](N)[C@@H](O)[C@@H]1O[C@H]1O[C@H](CO)[C@@H](O)[C@H](O)[C@@H]1O [LIVIDOMYCIN]

SMILES: C=C(NC(=O)c1csc(-c2nc3c(cc2O)-c2nc(cs2)C(=O)NC(C(C)O)C(=O)N/C(=C\C)c2nc(cs2)C(=O)NC2CC(O)C(=O)OCc4cccc5[nH]c(c(C)c45)C(=O)SCC(NC(=O)c4csc2n4)c2nc-3cs2)n1)C(N)=O (stereo not drawn) [NOSIHEPTIDE]
- Kd (Nucleic Acid [6]): < 3000 nM

SMILES: NC[C@@H]1O[C@H](O[C@H]2[C@@H](O)[C@H](O[C@@H]3[C@@H](O)[C@H](N)C[C@H](N)[C@H]3O[C@H]3O[C@H](CO)[C@@H](O)[C@H](O)[C@H]3N)O[C@@H]2CO)[C@H](N)[C@@H](O)[C@@H]1O [PAROMOMYCIN]
- Kd (Nucleic Acid [5]): < 12000 nM

- Kd (Nucleic Acid [7]): 20000 nM
SMILES: NC(=O)Cc1ccccn1 [PYRIDINE ACETAMIDE]

- Kd (Nucleic Acid [5]): 1700 nM
SMILES: NC[C@H]1O[C@H](O[C@H]2[C@H](O[C@@H]3O[C@H](CO)[C@@H](O)[C@H]3O)[C@@H](O)[C@H](N)C[C@@H]2N)[C@H](N)[C@@H](O)[C@@H]1O [RIBOSTAMYCIN]

- Kd (Nucleic Acid [8]): < 12000 nM
SMILES: CN[C@@H]1[C@H](O[C@H]2[C@H](O[C@H]3[C@H](O)[C@@H](O)[C@H](N=C(N)N)[C@@H](O)[C@@H]3N=C(N)N)O[C@@H](C)[C@]2(O)C=O)O[C@@H](CO)[C@H](O)[C@H]1O [STREPTOMYCIN]

SMILES: C=C(NC(=O)C(=C)NC(=O)c1csc(C2=N[C@@H]3c4csc(n4)[C@H]4NC(=O)c5csc(n5)[C@H]([C@](C)(O)[C@@H](C)O)NC(=O)[C@H]5CSC(=N5)/C(=C/C)NC(=O)[C@H]([C@@H](C)O)NC(=O)c5csc(n5)[C@]3(CC2)NC(=O)[C@H](C)NC(=O)C(=C)NC(=O)[C@H](C)NC(=O)[C@H]([C@@H](C)CC)N[C@@H]2C=Cc3c([C@H](C)O)cc(nc3[C@H]2O)C(=O)O[C@@H]4C)n1)C(N)=O [THIOSTREPTON]
- Kd (Nucleic Acid [6]): 1300 nM
- Kd (Nucleic Acid [9]): < 50 nM

- Kd (Nucleic Acid [5]): 80 nM
SMILES: NC[C@H]1O[C@H](O[C@H]2[C@H](O)[C@@H](O[C@H]3O[C@H](CO)[C@@H](O)[C@H](N)[C@H]3O)[C@H](N)C[C@@H]2N)[C@H](N)C[C@@H]1O [TOBRAMYCIN]

- Kd (Nucleic Acid [10]): 2.75 nM
SMILES: CC[C@H]1OC(=O)C[C@@H](O)[C@H](C)[C@@H](O[C@@H]2O[C@H](C)[C@@H](O[C@H]3C[C@@](C)(O)[C@@H](O)[C@H](C)O3)[C@H](N(C)C)[C@H]2O)[C@@H](CC=O)C[C@@H](C)C(=O)/C=C/C(C)=C/[C@@H]1CO[C@@H]1O[C@H](C)[C@@H](O)[C@@H](OC)[C@H]1OC [TYLOSIN]

- Kd (Nucleic Acid [11]): < 3000 nM
SMILES: NCCC[C@H](N)CC(=O)N[C@H]1CNC(=O)[C@H]([C@H]2C[C@H](O)NC(N)=N2)NC(=O)/C(=C/NC(N)=O)NC(=O)[C@H](CO)NC(=O)[C@H](CO)NC1=O [VIOMYCIN] (β3hOrn-[Dap]SS[ΔAla(Z-3-ureido)][X1]; lactam 1-C)
